Measured values: patent US5776935A, “Pyrido-phtalazin diones and their use against neurological disorders associated with excitotoxicity and malfunctioning of glutamatergic neurotransmission” (Merz & Co. GmbH & Co., priority 1996, dated 1998)
Where a name gives a salt, the structure may show the parent alone. Read-outs that look alike come from different tables or passages of the source.

Assays:
[1] = target: T1, glycineB site of the NMDA receptor (rat cortical membranes) (Rattus norvegicus, UniProt P35439); test: [3H]5,7-DCKA binding assay; settings: 10 nM [3H]5,7-DCKA
T1 construct: The cortex was dissected and homogenised in 20 volumes of ice-cold 0.32M sucrose; from tissue; host or cells: brain cortex membranes of male Sprague-Dawley rats
Experimental: Tissue preparation was performed according to Foster and Wong (1987). Male Sprague-Dawley rats (200-250g) were decapitated and their brains were removed rapidly. The cortex was dissected and homogenised in 20 volumes of ice-cold 0.32M sucrose using a glass-Teflon homogenizer. The homogenate was centrifuged at 1000×g for 10 min. The pellet was discarded and the supernatant centrifuged at 20,000×g for 20 min. The resulting pellet was resuspended in 20 volumes of distilled water and centrifuged for 20 min at 8000×g. Then the supernatant and the buffy coat were centrifuged three times (48,000× g for 20 min) in the presence of 5 mM Tris-HCl, pH 7.4. All centrifugation steps were carried out at 4° C. After resuspension in 5 volumes of 5 mM Tris-HCl, pH 7.4 the membrane suspension was frozen rapidly at -80° C. until the day of assay. On the day of assay the membranes were thawed and washed four times by resuspension in 5 mM Tris-HCl, pH 7.4 and centrifugation at 48,000× g for 20 min. The final pellet was suspended in assay buffer.
The amount of protein in the final membrane preparation was determined according to the method of Lowry (1951) with some modifications (Hartfree, 1972). 50 μl of Protein samples (in triplicates) were diluted to 1 ml with distilled water and treated with 0.9 ml of a solution containing 2 g potassium sodium tartrate and 10 g Na2 CO3 in 500 ml 1N NaOH and 500ml water. Blank and standard (with bovine serum albumin) were set up in the same way. The tubes were placed in a water bath at 50° C. for 10 min. and cooled at room temperature. 100 μl of a solution containing 2 g potassium sodium tartrate and 1 g CuSO4 x 5 H2 O in 90 ml water and 10 ml 1N NaOH were added. The samples were left at room temperature for at least 10 min., then 3 ml of Folin-Ciocalteu reagent (1 ml of reagent diluted with 15 ml water) was added rapidly during mixing. The tubes were again heated at 50° C. for 10 min. and cooled to room temperature. Absorbencies were then read in 1 cm cuvets at 650 nm. The final protein concentration used for our studies was between 100 and 250 μg/ml.
Incubation in both binding assays was terminated using a Millipore filter system. The samples, all in triplicate, were rinsed three times with 2.5 ml ice cold assay buffer over glass fibre filters obtained from Schleicher & Schuell under a constant vacuum. Following separation and rinse the filters were placed into scintillation liquid (5 ml; Ultima Gold) and radioactivity retained on the filters was determined by using conventional liquid scintillation counter (Hewlett Packard, Liquid Scintillation Analyser). `Total binding` was the absolute amount of radioligand bound in the absence of any additives whereas `non-specific` binding was determined in the presence of a high concentration of competitor.
[^3 H]5,7-DCKA binding assay
Experiments were performed according to the methods modified from previous groups (Canton et al., 1991; Yoneda et al., 1993). Membranes were suspended and incubated in 10 mM Tris-HCl, pH 7.4. Incubation time was 45 min at 4° C. Non-specific binding of [^3 H]5,7-DCKA was defined by the addition of unlabeled glycine at 0.1 mM. The stop-solution contained 10 mM Tris-HCl and 10 mM magnesium sulphate, pH 7.4. Filtration was performed as rapidly as possible. Displacement experiments were performed with a fixed [^3 H]5,7-DCKA concentration of 10 nM. Test compounds were diluted in water or DMSO and added in at least 5 different concentrations.

NMDA receptor [2] = target: T2, NMDA receptor (Rattus norvegicus, UniProt P35439); test: Patch clamp, inward currents to NMDA in cultured superior colliculus neurones; assay type: cell-based; settings: NMDA 200 μM, glycine 1 μM
T2 construct: endogenous in cells
Experimental: Cells were mechanically dissociated in 0.05% DNAase / 0.3% ovomucoid (Sigma) following a 15 minute pre-incubation with 0.66% trypsin / 0.1% DNAase (Sigma). The dissociated cells were then centrifuged at 18G for 10 minutes, resuspended in minimum essential medium (Gibco) and plated at a density of 200,000 cells cm onto poly-L-lysine (Sigma)-precoated plastic petri dishes (Falcon). The cells were nourished with NaHCO3 /HEPES-buffered minimum essential medium supplemented with 5% foetal calf serum and 5% horse serum (Gibco) and incubated at 37° C. with 5%CO2 at 95% humidity. The medium was exchanged completely following inhibition of further glial mitosis with cytosine-β-D-arabinofuranoside (20 μM Sigma) after about 7 days in vitro. Thereafter the medium was exchanged partially twice weekly. […] Moreover, the relatively small neurones (soma 15-20 μm .phi.) are ideally suited to minimise problems of buffered diffusion for concentration clamp experiments.
Patch clamp recordings were made from these neurones with polished glass electrodes (4-6 m.OMEGA.) in the whole cell mode at room temperature (20°-22° C.) with the aid of an EPC-7 amplifier (List). Test substances were applied by switching channels of a custom made fast superfusion system with a common outflow (10-20 ms exchange times). The contents of the intracellular solution were as follows (mM): CsCl (120), TEACl (20), EGTA (10), MgCl2 (1), CaCl2 (0.2), glucose (10), ATP (2), cAMP (0.25); pH was adjusted to 7.3 with CsOH or HCl. The extracellular solutions had the following basic composition (mM): NaCl (140), KCl (3), CaCl2 (0.2), glucose (10), HEPES (10), sucrose (4.5), tetrodotoxin (TTX 3*10-4). For most experiments glycine (1 μM) was present in all solutions. Experiments to test the glycine-dependence of the tricyclic "pyrido-phtalazin diones" were performed in the continuous presence of increasing concentrations of glycine (1-10 μM).
This effect was mediated at the glycineB site as evidenced by the parallel shift in the concentration-response curves in the presence of increasing glycine concentrations. Thus the Kbs of Mrz 2/502 as assessed according to the Cheng-Prusoff relationship were similar in glycine 1, 3 and 10 μM (80, 124 and 118 nM respectively). […] Choline derivatives had similar potencies to the free acids in vitro (Table14b).

NMDA receptor [3] = target: T3, NMDA receptor (Mus musculus, UniProt P35438); test: Maximal electroshock (MES)-induced tonic convulsions; assay type: in vivo; settings: i.p.; for MES ID50 / ED50: 15 min before induction; for ED50: mouse, ip, 0.25 h, read-out: MES ID50
T3 construct: from tissue; host or cells: living mice (albino Swiss males for NMDA and PTZ tests, NMR females for MES)
Experimental: (§1) To assess NMDA receptor antagonistic properties of the tested agents by assessing anticonvulsive effects. Additionally the role of organic acid transporters in the elimination from the brain of tested agents was assessed by using an inhibitor, Probenicid, on the duration of anticonvulsive activity.
(§2) Male albino Swiss mice (19-21 g) housed 10-15 per cage were used for the NMDA lethality test (Leander et al., 1988). For pentylenetetrazol (PTZ)-induced convulsions male albino Swiss mice (25-34 g.) housed 40 per cage (58×38×20 cm) were used while in the maximal electroshock (MES) and motor impairment tests NMR female mice (18-28 g) housed 5 per cage were employed. All animals were kept with water and food ad libittum under a 12-h light-dark cycle (light on at 6 a.m.), and at a controlled temperature (20°±0.5° C.). All experiments were performed between 10 a.m. and 5 p.m. Tested agents were injected 15 min. i.p before the induction of convulsions if not stated otherwise (see below). Mrz 2/502 was dissolved in saline added with NaOH. Most other agents were dissolved in the following solution: 0.606 g Tris; 5.0 g. glucose; 0.5 g. Tween 80; and 95 ml water. The choline and tetramethylammonium salts were dissolved in distilled water.
(§3) MES (100 Hz, 0.5 sec shock duration, 50 mA shock intensity, 0.9 ms impulse duration, Ugo Basile) was applied through corneal electrodes. The presence of tonic convulsions was scored (tonic extension of hind paws with minimum angle to the body of 90°). In an additional experiment mice were injected with Probenicid (200 mg/kg) 30 min before administration of the tested agents to assess the role of organic acid transport in elimination (duration of action). The aim was to obtain ED50 s for all parameters scored using the Litchfield Wilcoxon (1949) test for quantal dose responses.

NMDA receptor [4] = target: T3, NMDA receptor; test: Pentylenetetrazol (PTZ)-induced convulsions; assay type: in vivo; settings: ip, 0.25 h, i.p., PTZ 90 mg/kg i.p., read-out: PTZ ID50
Experimental: as §1, §2
Pentylenetetrazol was injected at a dose of 90 mg/kg (i.p). The presence of general tonic convulsions was then scored for 30 min as this parameter is more sensitive to NMDA receptor antagonists than clonic convulsions. The pharmacological end-point was taken as the presence of tonus in the hind limbs with stretching.

[5] = In vivo systemic and / or CNS availability
NMDA receptor [6] = target: T3, NMDA receptor; test: NMDA-induced convulsions / lethality test; assay type: in vivo; settings: ip, 0.25 h, i.p., 15 min before induction, read-out: NMDA ID50
Experimental: as §1, §2
In the NMDA-induced convulsions test in mice, a dose-response relationship for NMDA was first performed to determine the ED97 dose which was then used for testing of antagonistic properties. After injection of the ED97 dose of NMDA the animals were placed in a small cage (20×28×14 cm) and observed for 20 min. Death preceded by clonic convulsions and by tonic seizures was the pharmacological end-point.

organic acid transport = test: Duration of anticonvulsive action with and without probenecid; assay type: in vivo, mouse; settings: listed as 2/570
Experimental: as §1, §2, §3
Moreover it seems that choline salts have a longer duration of action. Probenecid injection prolonged considerably the duration of anticonvulsive action of all agents tested. For example the half lives of 2/514 and 2/570 were around 40 and 80 minutes respectively in the absence of probenicid. In the presence of probenicid the half lives were prolonged to around 180 and 210 minutes respectively. Thus, it seems that organic acids transport in the choroid plexus out of the brain plays an important role in the short duration of action of the compounds tested..

NMDA receptor [7] = target: T2, NMDA receptor; test: Microelectrophoretic application of NMDA to spinal neurones in vivo; settings: rat, iv, responses of single rat spinal neurones; read-out: Microelectrophoretic NMDA ID50
Experimental: (§4) The ability of these glycineB antagonists to act as NMDA receptor antagonists in vivo was assessed using i.v. administration against responses of single neurones in the rat spinal cord to microelectrophoretic application of AMPA and NMDA.

AMPA = test: Microelectrophoretic application of AMPA to spinal neurones in vivo; settings: i.v., responses of single rat spinal neurones
Experimental: as §4

[8] = peak currents, read-out: Peak NMDA IC50
[9] = plateau (steady-state) currents, read-out: Plateau NMDA IC50

O=c1[nH]nc(O)c2c1cc1ccccc1[n+]2[O-] [Mrz 2/499, 4-hydroxy-1-oxo-1,2-dihydro-pyridazino[4,5-b]-quinoline 5-oxide]
IC50 [1]: 16 µM
IC50 (NMDA receptor [2]; [8]): 51.2 µM
IC50 (NMDA receptor [2]; [9]): 13.8 µM
activity in the MES test (NMDA receptor [3]): effective
MES ID50 (NMDA receptor [3]; listed as 499, 15 min): 87.0 mg/kg
ED50 (NMDA receptor [4]): 18.6 mg/kg
in vivo systemic and / or CNS availability versus associated class I compounds [5]: much better

O=c1[nH][nH]c(=O)c2nc3cc(Br)c(Cl)cc3cc12 [Mrz 2/538]
IC50 (NMDA receptor [2]; [8]): 93.9 µM
IC50 (NMDA receptor [2]; [9]): 2.5 µM
ED50 (NMDA receptor [3]): > 60 mg/kg
ED50 (NMDA receptor [6]): 106 mg/kg
ED50 (NMDA receptor [4]): > 100 mg/kg

O=c1[nH][nH]c(=O)c2nc3cc(Cl)c(Br)cc3cc12 [Mrz 2/539]
IC50 (NMDA receptor [2]; [8]): 5.3 µM
IC50 (NMDA receptor [2]; [9]): 0.7 µM
ED50 (NMDA receptor [3]): > 60 mg/kg
ED50 (NMDA receptor [6]): > 100 mg/kg
ED50 (NMDA receptor [4]): > 100 mg/kg

O=c1[nH]nc(O)c2c1cc1cc(Br)ccc1[n+]2[O-] [Mrz 2/570, 8-bromo-4-hydroxy-1-oxo-1,2-dihydropyridazino[4,5-b]-quinoline 5-oxide choline salt]
IC50 (NMDA receptor [2]; [8]): 0.6 µM
IC50 (NMDA receptor [2]; [9]): 0.1 µM
MES ID50 (NMDA receptor [3]; listed as 570, 15 min): 12.8 mg/kg
half life of anticonvulsive action (organic acid transport; absence of probenecid): ~1.33 h
half life of anticonvulsive action (organic acid transport; presence of probenecid 200 mg/kg, 30 min before): ~3.5 h
ED50 (NMDA receptor [7]): 4.5 mg/kg
Microelectrophoretic AMPA ID50 (AMPA): > 16.0 mg/kg

O=c1[nH][nH]c(=O)c2nc3ccccc3cc12 [Mrz 2/585]
IC50 (NMDA receptor [2]; [8]): 65.9 µM
IC50 (NMDA receptor [2]; [9]): 19.1 µM
ED50 (NMDA receptor [3]): > 100 mg/kg
ED50 (NMDA receptor [6]): 58.9 mg/kg
ED50 (NMDA receptor [4]): 59 mg/kg
